In patent US8093240B2, “Triazole derivatives” (Merck Patent GmbH, priority 2005, dated 2012):

Test system: TGF-beta
Experiment: Elimination of TGF-beta-mediated growth inhibition in Mv1Lu cells (Crystal Violet staining)
Assay type: cell-based
Conditions: 48 h; lung epithelial cell line Mv1Lu, 1 ng/ml TGF-beta, 0.5% FCS, two days
Protocol: In-Vitro (Enzyme) Assay for Determination of the Efficacy of Inhibitors of the Inhibition of TGF-Beta-Mediated Effects
As an example, the ability of the inhibitors to eliminate TGF-beta-mediated growth inhibition is tested.
Cells of the lung epithelial cell line Mv1Lu are sown in a defined cell density in a 96-well microtitre plate and cultivated overnight under standard conditions. Next day, the medium is replaced by medium which comprises 0.5% of FCS and 1 ng/ml of TGF-beta, and the test sub-stances are added in defined concentrations, generally in the form of dilution series with 5-fold steps. The concentration of the solvent DMSO is constant at 0.5%. After a further two days, Crystal Violet staining of the cells is carried out. After extraction of the Crystal Violet from the fixed cells, the absorption is measured spectrophotometrically at 550 nm. It can be used as a quantitative measure of the adherent cells present and thus of the cell proliferation during the culture.

| SMILES | IC50 |
| --- | --- |
| Cc1cccc(-c2nnc3n2-c2ccc(O)cc2NCC3C)n1 (racemic) [Compound A1, (R,S)-8-hydroxy-4-methyl-1-(6-methylpyridin-2-yl)-5,6-dihydro-4H-2,3,6,10btetraazabenzo[e]azulene] | 0.18 µM |
| CC1CNc2cc(O)ccc2-n2c(-c3cccc(Cl)c3)nnc21 (racemic) [Compound A2, (R,S)-1-(3-Chlorophenyl)-4-methyl-5,6-dihydro-4H-2,3,6,10b-tetraazabenzo[e]azulen-8-ol] | 0.97 µM |
| Cc1cccc(-c2nnc3n2-c2ccc(Cl)cc2NCC3C)n1 (racemic) [Compound A3, (R,S)-8-Chloro-4-methyl-1-(6-methylpyridin-2-yl)-5,6-dihydro-4H-2,3,6,10b-tetraazabenzo[e]azulene] | 3.5 µM |
| COc1ccc2c(c1)NCC(C)c1nnc(-c3cccc(C)n3)n1-2 (racemic) [Compound A5, (R,S)-8-Methoxy-4-methyl-1-(6-methylpyridin-2-yl)-5,6-dihydro-4H-2,3,6,10b-tetraazabenzo[e]azulene] | 2.4 µM |
| COc1cccc(-c2nnc3n2-c2ccc(OC)cc2NCC3C)c1 (racemic) [Compound A6, (R,S)-8-Methoxy-1-(3-methoxyphenyl)-4-methyl-5,6-dihydro-4H-2,3,6,10b-tetraazabenzo[e]azulene] | 3.9 µM |
| COc1ccc2c(c1)NCC(C)c1nnc(-c3cc(Cl)ccc3F)n1-2 (racemic) [Compound A8, (R,S)-1-(5-Chloro-2-fluorophenyl)-8-methoxy-4-methyl-5,6-dihydro-4H-2,3,6,10b-tetraazabenzo[e]azulene] | 6.6 µM |
| CC1CNc2cc(O)ccc2-n2c(-c3cc(Cl)ccc3F)nnc21 (racemic) [Compound A9, (R,S)-1-(5-Chloro-2-fluorophenyl)-4-methyl-5,6-dihydro-4H-2,3,6,10b-tetraazabenzo[e]azulene-8-ol] | 0.91 µM |
| CCOc1cccc(-c2nnc3n2-c2ccc(Cl)cc2NCC3C)c1 (racemic) [Compound A10, (R,S)-8-Chloro-1-(3-ethoxyphenyl)-4-methyl-5,6-dihydro-4H-2,3,6,10b-tetraazabenzo[e]azulene] | 5.7 µM |
| COc1cccc(-c2nnc3n2-c2ccc(Cl)cc2NCC3C)c1 (racemic) [Compound B1, (R,S)-8-Chloro-1-(3-methoxyphenyl)-4-methyl-5,6-dihydro-4H-2,3,6,10b-tetraazabenzo[e]azulene] | 7 µM |
| Cc1cccc(-c2nnc3n2-c2ccc(Cl)cc2NC[C@@H]3C)n1 [Compound A4, (+)-(S)-8-Chloro-4-methyl-1-(6-methylpyridin-2-yl)-5,6-dihydro-4H-2,3,6,10b-tetraazabenzo[e]azulene] | 3.8 µM |
| Cc1cccc(-c2nnc3n2-c2ccc(O)cc2NCC3)n1 [Compound A7, 1-(6-Methylpyridin-2-yl)-5,6-dihydro-4H-2,3,6,10b-tetraazabenzo[e]azulen-8-ol] | 2.2 µM |
| Cc1cccc(-c2nnc3n2-c2ccc(O)cc2NC(C)C3)n1 (stereo not shown) [Compound A78, 5-Methyl-1-(6-methylpyridin-2-yl)-5,6-dihydro-4H-2,3,6,10b-tetraazabenzo[e]azulen-8-ol] | 0.15 µM |
| Cc1cccc(-c2nnc3n2-c2cc(NC(=O)C(C)(C)C)ccc2NCC3C)n1 (stereo not shown) [Compound A80, 2,2-Dimethyl-N-[4-methyl-1-(6-methylpyridin-2-yl)-5,6-dihydro-4H-2,3,6,10b-tetraazabenzo[e]azulen-9-yl]propionamide] | 3.3 µM |
